Assay results taken from BindingDB's records for doi:10.1016/j.ejmech.2016.05.044 (Texas A&M University, 2016).

Assay: Negative allosteric modulator activity at CB1 receptor (unknown origin) expressed in HEK293 cell membrane assessed as reduction in CP55,940-induced [35S]GTPgammaS binding by measuring EC50 of CP55,940 at 3.2 uM incubated for 60 mins by liquid scintillation counting analysis (Rvb = 4.7 nM)

EC50 [nM] | Structure (SMILES)
2.1 | CCCCCCc1c(C(=O)NCCc2ccc(N=[N+]=[N-])cc2)[nH]c2ccc(Cl)cc12
2.7 | CCc1c(C(=O)NCCc2ccc(C(=O)c3ccccc3)cc2)[nH]c2ccc(Cl)cc12
7.9 | CCCCCc1c(C(=O)NCCc2ccc(C(=O)c3ccccc3)cc2)[nH]c2ccc(Cl)cc12
1.2 | CN(C)c1ccc(CCNC(=O)c2[nH]c3ccc(Cl)cc3c2CN=[N+]=[N-])cc1
